Laboratory results taken from the supplement of paper PMC8617591.

Columns and labels:
[1] = system: Mycobacterium tuberculosis Erdman (autoluminescent); experiment: FIC90 (Loewe) at 90% inhibition (log2); higher = more antagonistic
Description: (§1)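 DiaMOND equipotent two-drug combination dose responses against autoluminescent M. tuberculosis Erdman in 8 in vitro models. Read-out is OD600, or luminescence for the intracellular and dormancy models, normalised to untreated wells. Hill-fit Einf, AUC25 and GRinf are potency metrics; FIC50 and FIC90 are Loewe-additivity fractional inhibitory concentrations, given as log2 (negative = synergy). Replicates are averaged.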

[2] = system: Mycobacterium tuberculosis Erdman (autoluminescent); experiment: FIC50 (Loewe) at 50% inhibition (log2); higher = more antagonistic
Description: as §1

[3] = system: Mycobacterium tuberculosis Erdman (autoluminescent); experiment: Einf, fitted maximum growth inhibition of combination (fraction); higher = stronger maximal inhibition
Description: as §1

[4] = system: Mycobacterium tuberculosis Erdman (autoluminescent); experiment: AUC25, normalised area under dose response up to IC25 (fraction (0-1)); higher = more potent at low dose
Description: as §1

[5] = system: Mycobacterium tuberculosis Erdman (autoluminescent); experiment: GRinf, maximum normalised growth rate inhibition (unitless (-1 to 1)); higher = less effect (negative = killing)
Description: as §1

CC[C@@H](CO)NCCN[C@@H](CC)CO [ethambutol] + CO[C@H]1/C=C/O[C@@]2(C)Oc3c(C)c(O)c4c(O)c(c(/C=N/N5CCN(C)CC5)c(O)c4c3C2=O)NC(=O)/C(C)=C\C=C\[C@H](C)[C@H](O)[C@@H](C)[C@@H](O)[C@@H](C)[C@H](OC(C)=O)[C@@H]1C [rifampicin]
Conditions	AUC25, [4]	Einf, [3]	FIC50, [2]	FIC90, [1]	GRinf, [5]
in vitro model: acidic pH 5.7, time point: constant (~7 days, model-specific)	0.0993	0.914	-0.394	–	-0.41
in vitro model: acidic pH 5.7, time point: terminal (~4-5 doublings, model-specific)	0.0298	0.979	0.0255	-0.711	-0.247
in vitro model: intracellular J774, time point: constant = terminal	–	0.967	–	-2.96	-0.274

Conditions	AUC25, [4]	Einf, [3]	FIC50, [2]	FIC90, [1]	GRinf, [5]
in vitro model: butyrate, time point: constant (~7 days, model-specific)	0.0748	0.918	0.144	–	-0.00723
in vitro model: butyrate, time point: terminal (~4-5 doublings, model-specific)	0.0614	0.965	0.0567	-0.897	-0.02
in vitro model: cholesterol 0.05 mM, time point: constant (~7 days, model-specific)	0.0842	0.701	-0.298	–	-0.173
in vitro model: cholesterol 0.05 mM, time point: terminal (~4-5 doublings, model-specific)	0.0953	0.887	0.234	–	-0.127
in vitro model: cholesterol-high 0.2 mM, time point: constant (~7 days, model-specific)	0.029	0.952	0.64	–	-0.414
in vitro model: cholesterol-high 0.2 mM, time point: terminal (~4-5 doublings, model-specific)	0.0647	0.996	0.607	0.842	-0.635
in vitro model: dormancy (butyrate + nitrate, low O2), time point: constant (~7 days, model-specific)	0.0667	0.847	-0.0202	–	0.407
in vitro model: dormancy (butyrate + nitrate, low O2), time point: terminal (~4-5 doublings, model-specific)	0.067	0.988	0.236	-0.513	-0.164
in vitro model: standard 7H9 glycerol, time point: constant = terminal	0.0324	0.894	-0.0789	–	0.143
in vitro model: valerate, time point: constant (~7 days, model-specific)	0.0519	0.845	-0.00587	–	0.0704
in vitro model: valerate, time point: terminal (~4-5 doublings, model-specific)	0.0294	0.933	0.0274	-1.32	0.0354

CC[C@@H](CO)NCCN[C@@H](CC)CO [ethambutol] + COc1c(N2C[C@@H]3CCCN[C@@H]3C2)c(F)cc2c(=O)c(C(=O)O)cn(C3CC3)c12 [moxifloxacin]
Conditions	AUC25, [4]	Einf, [3]	FIC50, [2]	FIC90, [1]	GRinf, [5]
in vitro model: acidic pH 5.7, time point: constant (~7 days, model-specific)	0.0862	0.734	-0.277	–	-0.475
in vitro model: acidic pH 5.7, time point: terminal (~4-5 doublings, model-specific)	0.0741	0.954	0.597	0.0622	-0.293
in vitro model: intracellular J774, time point: constant = terminal	–	0.983	–	-1.25	-0.327

Conditions	AUC25, [4]	Einf, [3]	FIC50, [2]	FIC90, [1]	GRinf, [5]
in vitro model: butyrate, time point: constant (~7 days, model-specific)	0.0864	0.923	0.483	–	-0.00896
in vitro model: butyrate, time point: terminal (~4-5 doublings, model-specific)	0.0649	0.968	0.451	0.0888	-0.0343
in vitro model: cholesterol 0.05 mM, time point: constant (~7 days, model-specific)	0.0757	0.731	0.0661	–	-0.25
in vitro model: cholesterol 0.05 mM, time point: terminal (~4-5 doublings, model-specific)	0.0944	0.944	0.765	0.527	-0.264
in vitro model: cholesterol-high 0.2 mM, time point: constant (~7 days, model-specific)	0.0274	0.942	0.681	–	-0.404
in vitro model: cholesterol-high 0.2 mM, time point: terminal (~4-5 doublings, model-specific)	0.0429	0.999	0.886	0.669	-0.639
in vitro model: dormancy (butyrate + nitrate, low O2), time point: constant (~7 days, model-specific)	0.105	0.833	0.352	–	0.45
in vitro model: dormancy (butyrate + nitrate, low O2), time point: terminal (~4-5 doublings, model-specific)	0.0964	0.967	-0.052	0.0461	-0.155
in vitro model: standard 7H9 glycerol, time point: constant = terminal	0.066	0.975	0.0276	-0.116	-0.21
in vitro model: valerate, time point: constant (~7 days, model-specific)	0.0569	0.878	0.703	–	-0.0437
in vitro model: valerate, time point: terminal (~4-5 doublings, model-specific)	0.0611	0.955	0.344	-0.489	-0.0314
